# Results as given in ChEMBL document CHEMBL1136663, “Structure-activity relationships studies of the anti-angiogenic activities of linomide” (Bioorg Med Chem Lett, 2003).
# Columns and labels:
# [1] = organism: Gallus gallus; experiment: Effective concentration for inhibiting blood vessel formation in the CAM (Chicken chorioallantoic membrane) angiogenesis assay.; assay type: functional
# [2] = system: HUVEC; experiment: Inhibitory concentration against Human umbilical vein endothelial cell (HUVEC) proliferation; assay type: functional, cell-based
# [3] = system: PC-3; experiment: Antiproliferative activity against PC-3 prostate cancer cells; assay type: functional, cell-based; conditions: Homo sapiens
Structure (SMILES),ED50 [1] [µg embryo-1],IC50 [2] [µM],IC50 [3] [µM]
Cn1c(=O)c(C(=O)Nc2ccccc2)c(O)c2ccccc21,18,7.2,> 100
CN(C(=O)c1c(O)c2ccccc2n(C)c1=O)c1ccccc1 [ROQUINIMEX],60.1,14,> 100
O=C(Nc1ccccc1)c1c(O)nc2ccccc2c1O,0.87,4,> 100
CN(C)C(=O)c1c(O)c2ccccc2n(C)c1=O,8.5,16.5,> 100
O=C(Nc1ccccc1)c1cc2ccccc2nc1O,> 100,–,> 100
CN(C(=O)c1c(O)nc2ccccc2c1O)c1ccccc1,7.5,6.55,> 100
CN(C(=O)c1cc2ccccc2n(C)c1=O)c1ccccc1,> 100,–,> 100
